Reference: US6503307B1, “Ink set, printing method, ink, printed article, printing apparatus, ink cartridge, recording unit, and process of forming polymeric compound films” (Canon Kabushiki Kaisha, priority 1999, dated 2003)

What was measured:
Solubility in water = assay type: physicochemical; settings: highest concentration forming a uniform transparent aqueous solution
From the text: In Table 1, the water solubility is shown by the highest concentration of the compound for forming a uniform transparent aqueous solution.

[1] = Reactivity: time for gel formation on mixing 50% solutions; assay type: physicochemical; settings: 50% solution of Group B compound with aqueous 50% solution of Compound A-1

Row | Solubility (Solubility in water) | Compound | Time for gel formation [1]
1 | 20% | NC1C(O)OC(CO)C(O)C1O (stereo not drawn) [Compound B-4] | 600 s
2 | >30% | SCC(S)CS [Compound B-8] | 600 s
3 | >30% | CCC(CS)(CS)CS [Compound B-10] | 600 s
